Results taken from ChEMBL document CHEMBL1201862, “PubChem BioAssay data set” (2004).
Calls of active or inactive are those of the source.

Tests used:
[1] = Luminescence Cell-Based Dose Response HTS to Identify Activators of Luciferase Translation or Activity in H4 […] Cells. [Related pubchem assays: 1829 (Project Summary), 1814 (Primary HTS)]; assay type: functional
[2] = Luminescence Cell-Based Dose Confirmation HTS to Identify Activators of 5'UTR Stem-Loop Driven Alpha-Synuclein mRNA Translation in H4 Neuroglioblastoma Cells. [Related pubchem assays: 1829 (Project Summary), 1814 (Primary HTS)]; assay type: functional
[3] = biological target: T1, Replicative DNA helicase DnaB (Mycobacterium tuberculosis, UniProt P9WMR3); assay: DnaB intein splicing inhibitors, dose response, biochemical, cell-free fluorescence (AID 449749); assay type: functional
T1 sequence (P9WMR3 whole entry): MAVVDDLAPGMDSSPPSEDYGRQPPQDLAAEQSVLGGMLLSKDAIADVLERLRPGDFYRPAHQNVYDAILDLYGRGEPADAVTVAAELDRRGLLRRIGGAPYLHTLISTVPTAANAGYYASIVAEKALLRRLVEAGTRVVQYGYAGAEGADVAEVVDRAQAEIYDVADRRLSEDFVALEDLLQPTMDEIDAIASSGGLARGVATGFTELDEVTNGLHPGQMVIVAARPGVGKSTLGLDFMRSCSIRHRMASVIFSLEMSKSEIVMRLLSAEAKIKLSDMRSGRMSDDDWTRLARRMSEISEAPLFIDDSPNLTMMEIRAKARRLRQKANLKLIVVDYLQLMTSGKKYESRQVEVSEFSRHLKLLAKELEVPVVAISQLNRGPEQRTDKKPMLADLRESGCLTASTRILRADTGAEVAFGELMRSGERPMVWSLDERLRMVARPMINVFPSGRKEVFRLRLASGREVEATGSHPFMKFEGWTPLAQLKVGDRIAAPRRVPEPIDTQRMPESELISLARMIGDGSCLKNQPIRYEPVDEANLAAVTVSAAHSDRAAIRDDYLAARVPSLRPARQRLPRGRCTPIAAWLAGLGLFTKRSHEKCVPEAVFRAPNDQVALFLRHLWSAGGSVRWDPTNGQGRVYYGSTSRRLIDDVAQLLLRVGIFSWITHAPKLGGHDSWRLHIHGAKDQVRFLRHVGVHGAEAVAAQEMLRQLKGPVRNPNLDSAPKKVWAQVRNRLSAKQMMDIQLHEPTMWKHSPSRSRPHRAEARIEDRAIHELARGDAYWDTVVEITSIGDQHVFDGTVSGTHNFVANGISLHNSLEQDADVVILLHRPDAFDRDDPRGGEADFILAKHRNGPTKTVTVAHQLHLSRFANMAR

[4] = biological target: T2, Protein RecA (Mycobacterium tuberculosis, UniProt P9WHJ3); assay: Fluorescence Cell-Free Homogeneous Dose Retest to Identify Inhibitors of RecA-Intein Splicing Activity. [Related pubchem assays (depositor defined):AID2097, AID2223, AID489010, AID492950]; assay type: functional
T2 sequence (P9WHJ3 whole entry): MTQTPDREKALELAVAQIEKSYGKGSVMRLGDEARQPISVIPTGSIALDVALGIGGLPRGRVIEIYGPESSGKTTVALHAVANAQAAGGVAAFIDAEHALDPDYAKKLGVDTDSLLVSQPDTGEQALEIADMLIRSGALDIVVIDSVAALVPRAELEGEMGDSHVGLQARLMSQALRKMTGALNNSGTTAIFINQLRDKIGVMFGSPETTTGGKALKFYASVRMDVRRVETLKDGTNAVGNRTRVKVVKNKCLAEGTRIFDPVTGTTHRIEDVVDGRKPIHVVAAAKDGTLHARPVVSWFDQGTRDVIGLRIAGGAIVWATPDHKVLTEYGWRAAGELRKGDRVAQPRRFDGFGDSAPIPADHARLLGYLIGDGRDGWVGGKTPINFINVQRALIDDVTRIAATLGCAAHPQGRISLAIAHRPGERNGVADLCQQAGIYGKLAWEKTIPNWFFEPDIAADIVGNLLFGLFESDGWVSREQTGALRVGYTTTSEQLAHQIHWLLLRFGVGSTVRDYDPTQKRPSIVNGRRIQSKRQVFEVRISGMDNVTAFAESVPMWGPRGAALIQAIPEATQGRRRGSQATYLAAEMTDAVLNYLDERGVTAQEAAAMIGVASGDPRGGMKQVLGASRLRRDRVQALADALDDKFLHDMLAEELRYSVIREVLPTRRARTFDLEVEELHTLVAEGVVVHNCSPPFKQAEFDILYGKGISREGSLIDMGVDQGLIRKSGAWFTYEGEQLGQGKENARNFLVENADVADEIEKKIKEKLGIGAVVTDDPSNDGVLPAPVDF

[5] = system: H4; assay: Luminescence Cell-Based Dose Response HTS to Identify Activators of 5'UTR Stem-Loop Driven Prion Protein mRNA Translation in H4 Neuroglioblastoma Cells. [Related pubchem assays: 1829 (Project Summary), 1814 (Primary HTS)]; assay type: functional; conditions: Homo sapiens
[6] = biological target: T3, Cytochrome P450 1A2 (Homo sapiens, UniProt P05177);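 further: PubChem cytochrome P450 panel assay, CYP1A2 panel member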
T3 sequence (P05177 whole entry): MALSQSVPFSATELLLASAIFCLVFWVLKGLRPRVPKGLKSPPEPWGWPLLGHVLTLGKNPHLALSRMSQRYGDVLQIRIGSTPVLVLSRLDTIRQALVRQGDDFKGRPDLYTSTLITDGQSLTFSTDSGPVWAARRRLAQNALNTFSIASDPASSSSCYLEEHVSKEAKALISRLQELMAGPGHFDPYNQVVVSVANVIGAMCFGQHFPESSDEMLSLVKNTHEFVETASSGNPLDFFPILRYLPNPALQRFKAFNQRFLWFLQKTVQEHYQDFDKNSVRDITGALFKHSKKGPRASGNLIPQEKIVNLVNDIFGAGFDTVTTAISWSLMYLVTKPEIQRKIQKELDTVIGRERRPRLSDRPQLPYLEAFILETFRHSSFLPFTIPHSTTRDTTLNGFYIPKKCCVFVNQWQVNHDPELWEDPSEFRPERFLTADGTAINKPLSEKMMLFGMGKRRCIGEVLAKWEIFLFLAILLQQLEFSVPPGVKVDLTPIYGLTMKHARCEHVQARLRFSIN

[7] = biological target: Cytochrome P450 2C9 (Homo sapiens, UniProt P11712)
[8] = biological target: Cytochrome P450 3A4 (Homo sapiens, UniProt P08684);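 further: CYP3A4 tested as one member of a cytochrome P450 panel screen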
[9] = biological target: Cytochrome P450 2C19 (Homo sapiens, UniProt P33261); assay: Cytochrome panel assay with activity outcomes. Panel member name: p450-cyp2c19 Compounds with AC50 equal or less than 10 uM are considered active; assay type: functional
[10] = biological target: Cytochrome P450 2D6 (Homo sapiens, UniProt P10635);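 further: CYP2D6 member of a cytochrome P450 panel assay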
Cytochrome P450 2D6, sequence (P10635 whole entry): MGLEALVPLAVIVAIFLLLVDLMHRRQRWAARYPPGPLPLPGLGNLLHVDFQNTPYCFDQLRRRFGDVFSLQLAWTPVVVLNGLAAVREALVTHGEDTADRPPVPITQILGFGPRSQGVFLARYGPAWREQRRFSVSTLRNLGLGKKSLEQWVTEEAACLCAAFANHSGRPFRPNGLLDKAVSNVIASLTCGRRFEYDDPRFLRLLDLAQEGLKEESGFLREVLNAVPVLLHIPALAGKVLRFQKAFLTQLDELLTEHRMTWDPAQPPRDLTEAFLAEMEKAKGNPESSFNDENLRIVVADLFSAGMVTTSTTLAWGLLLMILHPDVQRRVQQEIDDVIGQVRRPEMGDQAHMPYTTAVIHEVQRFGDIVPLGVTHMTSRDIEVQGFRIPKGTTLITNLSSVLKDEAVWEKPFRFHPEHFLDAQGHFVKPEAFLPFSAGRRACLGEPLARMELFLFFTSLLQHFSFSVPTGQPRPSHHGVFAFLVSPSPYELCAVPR

Cytochrome P450 2C9, sequence (P11712 whole entry): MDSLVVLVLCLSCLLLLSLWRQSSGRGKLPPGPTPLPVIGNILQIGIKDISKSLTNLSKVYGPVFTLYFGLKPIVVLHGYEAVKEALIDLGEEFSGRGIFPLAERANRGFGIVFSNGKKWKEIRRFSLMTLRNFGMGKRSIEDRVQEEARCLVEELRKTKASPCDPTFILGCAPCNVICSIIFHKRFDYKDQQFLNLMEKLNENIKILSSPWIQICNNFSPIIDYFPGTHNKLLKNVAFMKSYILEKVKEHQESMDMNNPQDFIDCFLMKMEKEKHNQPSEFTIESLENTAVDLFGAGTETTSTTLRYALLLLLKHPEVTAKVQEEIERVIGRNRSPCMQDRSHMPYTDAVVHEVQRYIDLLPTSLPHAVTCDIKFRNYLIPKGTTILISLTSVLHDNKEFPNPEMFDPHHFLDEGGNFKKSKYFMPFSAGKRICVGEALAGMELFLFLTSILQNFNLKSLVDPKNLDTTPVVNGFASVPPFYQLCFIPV
Cytochrome P450 3A4, sequence (P08684 whole entry): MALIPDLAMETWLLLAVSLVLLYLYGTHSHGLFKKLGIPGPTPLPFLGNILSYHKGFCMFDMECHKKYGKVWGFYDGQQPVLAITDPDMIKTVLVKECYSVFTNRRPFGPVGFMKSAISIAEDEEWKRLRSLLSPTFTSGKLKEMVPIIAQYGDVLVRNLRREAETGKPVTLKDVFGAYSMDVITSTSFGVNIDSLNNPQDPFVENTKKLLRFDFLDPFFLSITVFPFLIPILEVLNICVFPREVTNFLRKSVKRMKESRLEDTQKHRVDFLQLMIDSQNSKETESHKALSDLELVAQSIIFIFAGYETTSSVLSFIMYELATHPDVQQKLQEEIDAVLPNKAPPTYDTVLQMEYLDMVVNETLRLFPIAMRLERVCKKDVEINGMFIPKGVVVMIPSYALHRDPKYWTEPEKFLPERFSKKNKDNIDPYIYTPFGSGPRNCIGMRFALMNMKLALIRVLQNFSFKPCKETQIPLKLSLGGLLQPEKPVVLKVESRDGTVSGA
Cytochrome P450 2C19, sequence (P33261 whole entry): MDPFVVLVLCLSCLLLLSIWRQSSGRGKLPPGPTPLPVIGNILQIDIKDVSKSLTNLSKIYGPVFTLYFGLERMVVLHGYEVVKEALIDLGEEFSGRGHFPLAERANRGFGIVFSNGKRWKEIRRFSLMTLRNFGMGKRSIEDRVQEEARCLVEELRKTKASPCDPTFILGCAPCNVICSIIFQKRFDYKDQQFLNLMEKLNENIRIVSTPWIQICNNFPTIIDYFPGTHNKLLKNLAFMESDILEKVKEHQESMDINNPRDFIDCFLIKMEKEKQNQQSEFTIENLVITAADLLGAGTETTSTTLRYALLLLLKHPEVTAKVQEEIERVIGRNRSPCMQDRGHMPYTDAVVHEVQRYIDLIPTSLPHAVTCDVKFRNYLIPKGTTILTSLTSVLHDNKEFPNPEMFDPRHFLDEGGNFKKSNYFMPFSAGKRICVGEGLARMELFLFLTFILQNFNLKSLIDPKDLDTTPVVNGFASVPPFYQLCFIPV

With Clc1ccc(-c2cnc(Oc3ccccc3)nc2)cc1 the EC50 [1] was 0.194 µM (active) and the EC50 [2] was 2.63 µM (active).

For COc1ccc(C(c2c(C)n[nH]c2O)c2c(C)n[nH]c2O)cc1Br, the AC50 [3] was 0.32 µM (active) and the EC50 [4] was 0.289 µM (active).

With Cc1n[nH]c(O)c1C(c1ccc([N+](=O)[O-])cc1)c1c(C)n[nH]c1O the AC50 [3] was 0.704 µM (active) and the EC50 [4] was 0.27 µM (active).

In the case of COc1ccc(C(CC(=O)Nc2ccccn2)N2Cc3ccccc3C2=O)cc1 (stereo not given), the EC50 [1] is reported as 16.4 µM (active), the EC50 [2] is reported as > 60 µM (not active) and the EC50 [5] is reported as > 120 µM (not active).

With CCOC(=O)c1nnn(-c2nc(OC)nc(N3CCCCC3)n2)c1-c1ccccc1 the AC50 [6] was 14.1 µM (inconclusive) and the AC50 [7] was 28.2 µM (inconclusive).

For Cc1cc(C(=O)CSc2cccc[n+]2[O-])c(C)n1-c1ccc(Br)cc1, the EC50 [1] was 55.6 µM (active), the EC50 [2] was < 0.1 µM (active) and the EC50 [5] was > 120 µM (not active).

In the case of Cc1cc(C)n(C(=O)c2cc3sccc3[nH]2)n1, the EC50 [1] is reported as 14.6 µM (active), the EC50 [2] is reported as 6.99 µM (active) and the EC50 [5] is reported as 83.6 µM (inconclusive).

With Cn1nc(/C=C/c2ccccc2)ccc1=O the EC50 [1] was 15.2 µM (active), the EC50 [2] was 10.9 µM (active) and the EC50 [5] was 14.1 µM (active).

With CCCn1nnnc1NC(=O)c1ccc(C)cc1Cl the AC50 [6] was 10 µM (inconclusive) and the AC50 [7] was 0.2 µM (inconclusive).

For CC1=NNC(=O)C1Cc1ccc(F)cc1 (stereo not given), the AC50 [3] was 14 µM (active) and the EC50 [4] was 14.2 µM (active).

With COc1cc([C@H](O)CO)ccc1O the AC50 [8] was 0.0316 µM (inconclusive).

For C[C@](O)(C(=O)Nc1ccc(S(=O)(=O)c2ccccc2)cc1)C(F)(F)F, the AC50 [6] was 39.8 µM (inconclusive), the AC50 [8] was 31.6 µM (inconclusive) and the AC50 ([9]; read-out: AC50) was 6.31 µM (inconclusive). The AC50 [10] was 31.6 µM (inconclusive).

In the case of CCOC(=O)c1c(C)[nH]c2ccc3c(c12)CN1CCc2cc(OC)ccc2[C@@H]1O3, the AC50 [8] is reported as 2.51 µM (inconclusive) and the AC50 [9] is reported as “inconclusive”.

In the case of CCc1cc2c(nc1CC)CCN(CC/C(C)=N/OC[C@H]1O[C@H](c3ccccc3)C=C[C@@H]1Oc1ccc(OC)cc1)C2, the AC50 [8] is reported as 6.31 µM (inconclusive), the AC50 [7] is reported as 6.31 µM (inconclusive) and the AC50 [10] is reported as 6.31 µM (inconclusive).

In the case of Oc1ccc2c3c1O[C@H]1c4[nH]c5ccccc5c4C[C@]4(O)[C@H](C2)N(CC2CC2)CC[C@@]314, the AC50 [8] is reported as 0.01 µM (inconclusive).

With Clc1ccccc1-c1cc(NCc2cccnc2)ncn1 the AC50 [8] was 10 µM (inconclusive).

For CCOc1ccc(C(C)=O)cc1N1C(=O)C2C3C=CC(C3=C(C)C)C2C1=O (stereo not given), the AC50 [6] was 0.0631 µM (inconclusive), the AC50 [7] was 5.62 µM (inconclusive) and the AC50 ([9]; read-out: AC50) was 25.1 µM (inconclusive).

With COc1cccc(Cn2c(=O)c(-c3ccccc3)nc3cnc(N(C)C)nc32)c1 the AC50 [6] was 10 µM (inconclusive) and the AC50 [7] was 15.8 µM (inconclusive).

With COc1ccc(OC)c(/C=N/c2ccccc2-c2nc3ccccc3[nH]2)c1 the EC50 [1] was 8.07 µM (active), the EC50 [2] was 13.1 µM (active) and the EC50 [5] was 10.8 µM (active).

For O=C(Nc1cccn2ncnc12)c1ccccc1, the EC50 [1] was 14.8 µM (active), the EC50 [2] was > 120 µM (not active) and the EC50 [5] was 23.5 µM (active).

For O=[N+]([O-])c1ccccc1CSc1nc(O)c2nc[nH]c2n1, the AC50 [8] was 3.98 µM (inconclusive).

For O=C(Nc1ccccc1N1CCOCC1)c1cnccn1, the AC50 [8] was 14.1 µM (inconclusive) and the AC50 ([9]; read-out: AC50) was 0.0398 µM (inconclusive).

In the case of CCOC(=O)c1cnn(-c2ccc(C(F)(F)F)cn2)c1N, the EC50 [1] is reported as > 120 µM (not active), the EC50 [2] is reported as 21.1 µM (active) and the EC50 [5] is reported as > 120 µM (not active).

In the case of COc1ccc(CCc2nc(-c3cccs3)no2)cc1, the EC50 [1] is reported as 6.22 µM (active), the EC50 [2] is reported as 19.2 µM (active) and the EC50 [5] is reported as 23.3 µM (active).

With O=c1c2c3nc4ccccc4nc3n(/N=C/c3ccccn3)c2ncn1-c1ccccc1 the EC50 [1] was 13 µM (active), the EC50 [2] was > 120 µM (not active) and the EC50 [5] was > 120 µM (not active).

In the case of CCOC(=O)C1=C(O)/C(=C\c2ccc(OC)c(OC)c2)N=C1C, the AC50 [6] is reported as 8.91 µM (inconclusive), the AC50 [8] is reported as 15.8 µM (inconclusive) and the AC50 ([9]; read-out: AC50) is reported as 39.8 µM (inconclusive).

For Cc1ccccc1NC(=O)C1Cc2ccccc2CN1C(=O)c1ccco1 (stereo not given), the EC50 [1] was 39.3 µM (active), the EC50 [2] was 35.6 µM (active) and the EC50 [5] was 12.7 µM (active).

In the case of CNc1nc(-c2ccccc2OC)nc2ccccc12, the AC50 [8] is reported as 31.6 µM (inconclusive) and the AC50 [9] is reported as “inconclusive”.

With O=C(c1ccc(Cl)cc1)c1c[nH]c(C(=O)C(Cl)(Cl)Cl)c1 the EC50 [4] was > 380 µM (inconclusive).

In the case of Cc1ccc(-c2nnc(-c3ccc4ccccc4c3)o2)cc1, the AC50 [8] is reported as 6.31 µM (inconclusive) and the AC50 [7] is reported as 5.01 µM (inconclusive).

In the case of Cc1ccc(NC(=O)CC2SCCNC2=O)cc1Cl (stereo not given), the EC50 [1] is reported as 30.9 µM (active), the EC50 [2] is reported as 14.5 µM (active) and the EC50 [5] is reported as > 120 µM (not active).

For Cc1ccc(C(=O)NC(=S)NCC(=O)c2ccccc2)cc1, the AC50 [6] was 2.24 µM (inconclusive), the AC50 [8] was 8.91 µM (inconclusive) and the AC50 [7] was 2.51 µM (inconclusive).

In the case of CN(C)Cc1ccccc1-c1nc(NCc2cccs2)c2ccccc2n1, the AC50 [8] is reported as 6.31 µM (inconclusive).

For COc1ccc(NC(=O)N2CC[C@@]3(CCCN(S(C)(=O)=O)C3)C2)cc1, the AC50 [6] was 25.1 µM (inconclusive) and the AC50 [8] was 39.8 µM (inconclusive).

With CCOc1c2ccc(C(=O)NCc3cc(C(F)(F)F)cc(C(F)(F)F)c3)cc2nn1C the AC50 [6] was 17.8 µM (inconclusive), the AC50 [7] was 31.6 µM (inconclusive) and the AC50 [10] was 20 µM (inconclusive).

In the case of Cc1ccc(NCCC(=O)c2ccc(Cl)cc2)cc1C, the AC50 [8] is reported as 3.55 µM (inconclusive).

With COc1ccccc1-c1nc(N2CCOCC2)c2ccccc2n1 the AC50 [8] was 15.8 µM (inconclusive) and the AC50 [10] was 12.6 µM (inconclusive).
